Earlier results in US6517822B1, “Formulations and methods for straightening hair” (priority 1998, dated 2003).

Key:
[1] = molarity of 0.1

Row | SMILES | electrical conductivity [1] | solute ionized at equilibrium (0.01 mole in a liter of water at room temperature) | acetic acid ionized (0.1 mol, final volume 1 liter) | tumor finding from oral exposure (animal studies)
1 | CC(=O)O [acetic acid] | 4.67 reciprocal ohms (mho) | about 4% | 1.3% | –
2 | CC(N)=O [Acetamide] | – | – | – | liver tumors
